Where two headings read alike, the source gives them in different places.

The viability is a read-out of living cells in per cent, often relative to untreated cells. A word on the IC50: it is the point on the concentration scale where inhibition reaches its midpoint.

Series [1] in a line: MTT cell viability assay, Huh7 cells. The series is classed as cell-based, human. The note with it: human, Huh7 cells, without TRAIL; for viability: MTT, Supplementary Table 2, read-out: Cell viability assay (%) Compound only. As for the experimental part:
(§1) Cell viability was assessed using a 3-(4,5-dimethylthiazol-2-yl)-2,5-diphenyltetrazolium bromide (MTT, Sigma-Aldrich, St. Louis, USA) assay. The cells were seeded at a density of 1 × 10^4 cells per well and treated with the lead compounds and/or TRAIL. After 24 or 48 h, MTT (2 mg/ml) was added to each well, and the absorbance was measured using a microplate reader (Bio-Rad, Hercules, USA) at 570 nm. The cell viability was calculated as the percentage of viable cells in the drug-treated group versus the untreated control using the following equation: cell viability (%) = [OD (drug)-OD (blank)]/[OD (control)-OD (blank)] × 100.
(In general: Tetrazolium dyes change colour on reduction, which living cells bring about.)

Series [2] concerns the target T1, MKK7-TIPRL interaction (Homo sapiens, UniProt O14733+O75663).
T1 sequence (O14733 1-419): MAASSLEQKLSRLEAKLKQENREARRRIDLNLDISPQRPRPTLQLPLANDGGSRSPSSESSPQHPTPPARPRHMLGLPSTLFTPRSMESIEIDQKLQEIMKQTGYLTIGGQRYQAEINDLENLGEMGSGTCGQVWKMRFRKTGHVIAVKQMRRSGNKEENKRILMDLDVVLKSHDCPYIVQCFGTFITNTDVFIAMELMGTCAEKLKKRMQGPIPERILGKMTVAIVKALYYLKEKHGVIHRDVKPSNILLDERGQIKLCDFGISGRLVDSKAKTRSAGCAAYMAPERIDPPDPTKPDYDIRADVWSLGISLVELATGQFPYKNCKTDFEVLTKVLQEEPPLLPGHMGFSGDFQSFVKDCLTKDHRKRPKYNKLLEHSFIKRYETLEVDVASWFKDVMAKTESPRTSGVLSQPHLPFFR
T1 sequence (O75663 1-272): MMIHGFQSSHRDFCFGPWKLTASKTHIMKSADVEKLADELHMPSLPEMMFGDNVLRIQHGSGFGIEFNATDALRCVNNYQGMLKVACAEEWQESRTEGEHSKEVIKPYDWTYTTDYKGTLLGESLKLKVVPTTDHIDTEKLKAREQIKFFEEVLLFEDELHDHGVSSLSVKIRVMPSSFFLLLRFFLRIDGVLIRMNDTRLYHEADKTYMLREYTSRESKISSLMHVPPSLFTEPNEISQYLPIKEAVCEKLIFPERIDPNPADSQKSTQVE
Put plainly: ELISA of the MKK7-TIPRL interaction. On the set-up: The full-length cDNAs of human TIPRL and MKK7 were provided by the Korea Human Gene Bank; His; made in house. The series is classed as binding. The source says: The full-length cDNAs of human TIPRL and MKK7 were provided by the Korea Human Gene Bank (Korea Research Institute of Biosciences and Biotechnology, South Korea). TIPRL and MKK7 were subcloned into the pET21a vector (purchased from Novagen, San Diego, CA) and the pEBG vector containing a GST tag (kindly provided by Y. Liu, National Institute on Aging, National Institutes of Health) to construct the His-tagged and the GST-tagged plasmids, respectively. Purified TIPRL was conjugated with horseradish peroxidase (HRP). To screen chemical compounds using HTS, an ELISA system that detected the TIPRL and MKK7 interaction was constructed. Briefly, 96-well ELISA plates were coated with GST-MKK7 dissolved in PBS-T buffer (PBS containing 0.05% Tween-20 and 0.5% BSA), followed by the addition of 100 μl of TIPRL-HRP dissolved in PBS-T buffer. After 1 h, 100 μl of tetramethylbenzidine (TMB) solution was added to each well and the absorbance was read at 450 nm.
For orientation: In an ELISA, binding on a coated surface is turned into a signal by an enzyme label.

The subject of series [3] is Huh7 cells. The series can be described thus: MTT cell viability assay, Huh7 cells. The class given is cell-based, human. The note with it: for effect on cell viability / cell death of Huh7 cells in the presence of TRAIL: MTT, co-treatment with TRAIL. As to the method: as §1
Series [4] has as its system caspase-3. Put plainly: Caspase 3 activity assay in Huh7 cells. The class given is cell-based, human. The note with it: each compound at its working concentration and time of the table. As for the experimental part: The caspase 3 activity was measured using a caspase-3 luminescent assay kit (Promega, Madison, WI, USA), according to the manufacturer's instructions, and a luminescence plate reader (Molecular Devices Co., Sunnyvale, USA).

The test system of series [5] is caspase-3 and PARP. The series can be described thus: Western blot of cleaved caspase-3 and PARP in Huh7 cells. The note with it: lead compounds co-treated with TRAIL 100 ng/ml, TRAIL tested alone. The class given is cell-based, human. As to the method: The cells were lysed in lysis buffer (50 mM Tris-HCl, pH 7.4, 150 mM NaCl, 1% Triton™ X-100, 0.1% SDS, 1 mM EDTA, 1 mM Na3VO4, 1 mM NaF, and protease inhibitor cocktail) and clarified by centrifugation at 14,000×g for 20 min at 4°C. The protein samples were then subjected to Western blotting with the indicated antibodies.
(Immunoblotting shows a protein as a band on a membrane.)

Series [6] concerns Huh7 tumor xenografts. The series can be described thus: In vivo Huh7 xenograft assay. More on the design: species or system BALB/c nude mice. The source says: Five-week-old female BALB/c nude mice were purchased from SLC Japan and were maintained in accordance with the guidelines of the Institutional Review Committee for Animal Care and Use of the Korea Research Institute of Bioscience and Biotechnology. Protocol approval was obtained from the same committee.
Huh7 cells were harvested and subcutaneously injected (5 × 10^6 cells/mouse) into nude mice (N = 6/group for TRT-0173 or TRT-0029 experiments). When the tumor volume reached ~100 mm^3, the mice were divided into four groups and treated with vehicle, TRAIL (2.5 mg/kg, intraperitoneal), lead compound (TRT-0029 or TRT-0173, 30 mg/kg, intravenously), or lead compound (30 mg/kg, intravenously) combined with TRAIL (2.5 mg/kg, intraperitoneal) daily for 11 days (11 treatments in total). The tumor volumes were measured every 2 days for 11 days after treatment, and tumor volume was calculated according to the following equation: V (mm^3) = width^2 (mm^2) × length (mm)/2. Body weight and tumor mass were measured 11 days after treatment.

[7] abbreviates: hit compounds from the in-house library, Supplementary Table 2, read-out: ELISA IC50.

As for `CC(=O)c1cc(-n2ncc3cc(NS(=O)(=O)c4ccccc4)ccc32)c(Cl)cc1Cl` [Compound 3], the viability in series [1] was determined as 42%. In series [2] (setting [7]), the IC50 turned out to be 1700 nM.
Taken in the same sequence, the figures for `COc1ccc(S(=O)(=O)Nc2ccc3c(cnn3-c3ccc(F)cc3)c2)cc1` [Compound 4] were 86% and 89 nM.
The corresponding values for `Nc1ccc2[nH]ncc2c1` [Compound 5] are 81% and 1400 nM.
`O=Cc1cc([N+](=O)[O-])ccc1F` [Compound 6]: the viability in series [1] turned out to be 93%. Moreover, the IC50 in series [2] (setting [7]) amounted to 2000 nM.
Taken in the same sequence, the figures for `O=[N+]([O-])c1ccc(F)c(/C=N/Nc2ccc(F)cc2)c1` [Compound 7] were 89% and 8900 nM.
As to `O=[N+]([O-])c1ccc2c(cnn2-c2ccc(F)cc2)c1` [Compound 8], in series [1], the viability was 69%. The IC50 in series [2] (setting [7]) came to 2800 nM.
The corresponding values for `Nc1ccc2c(cnn2-c2ccc(F)cc2)c1` [Compound 9] are 90% and 1000 nM.
Regarding `CC(=O)c1cc(-n2cc3cc(N)ccc3n2)c(Cl)cc1Cl` [Compound 10], the viability in series [1] was found to be 111%. Further, the IC50 in series [2] (setting [7]) turned out to be 3500 nM.
Turning to `CC(=O)c1cc(-n2ncc3cc(N)ccc32)c(Cl)cc1Cl` [TRT-0002], in series [1] (Huh7, MTT, 40 µM, 48 hrs, Supplementary Table 3, read-out: Cell viability assay Compound only), the viability at 48 h, 40 µM came to 81%. In addition, the viability in series [1] stood at 80%. The viability at 40 µM in series [3] (Homo sapiens, Huh-7, Huh7, MTT, 40 µM, 48 hrs, with TRAIL, Supplementary Table 3, read-out: Cell viability assay Compound + TRAIL) was found to be 29%. Further, the “effect on cell viability / cell death of Huh7 cells in the presence of TRAIL” value in series [3] is on record as “significantly enhanced TRAIL-induced cell death”; in series [3] (listed as 16), “synergetic effect”. For the same molecule, in series [4], the “Caspase 3 activity Compound + TRAIL/Compound” value came out at 1.80 ratio. Moreover, the IC50 in series [2] (setting [7]) came out at 1000 nM; in series [2] (newly synthesized TRT-0002, ELISA, read-out: IC50 to inhibit the MKK7-TIPRL interaction), 1400 nM.

B1: TRAIL: human TRAIL protein, member of the TNF superfamily, used as co-treatment (protein, UniProt P50591 1-281, looked up)
Tumor necrosis factor ligand …: MAMMEVQGGPSLGQTCVLIVIFTVLLQSLCVAVTYVYFTNELKQMQDKYSKSGIACFLKEDDSYWDPNDEESMNSPCWQVKWQLRQLVRKMILRTSEETISTVQEKQQNISPLVRERGPQRVAAHITGTRGRSNTLSSPNSKNEKALGRKINSWESSRSGHSFLSNLHLRNGELVIHEKGFYYIYSQTYFRFQEEIKENTKNDKQMVQYIYKYTSYPDPILLMKSARNSCWSKDAEYGLYSIYQGGIFELKENDRIFVSVTNEHLIDMDHEASFFGAFLVG
On to B1, for which, in series [5], the “apoptosis signals (cleaved caspase-3, PARP) by Western blotting” value is on record as “did not activate caspase-3”. The “anti-cancer effects of TRAIL alone in vivo” value in series [6] (5 and 2.5 mg/kg, data not shown) is “dose-dependent anti-cancer effects”. Also, in series [6] (TRAIL 2.5 mg/kg i.p. daily for 11 days), the “reduction of average tumor mass, TRAIL alone” value is on record as 24.8%.

The values above are taken from publication PMC5762535, “Novel indazole-based small compounds enhance TRAIL-induced apoptosis by inhibiting the MKK7-TIPRL interaction in hepatocellular carcinoma” (Oncotarget, 2017).
